Source: ChEMBL document CHEMBL1201862, “PubChem BioAssay data set” (2004)
Where a name gives a salt, the structure may show the parent alone. Active and inactive are the calls of the source.

Assays:
[1] = P. falciparum Dd2 growth inhibitors, dose response, SYBR Green, cherry-picked samples (AID 1159567); format: functional, cell-based
[2] = Dd2 malaria parasite growth inhibition potency – SYBR Green, dry powder samples, dose response (AID 1159566); format: functional, cell-based;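 further: potency for growth inhibition with lower SYBR green DNA signal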
[3] = growth inhibition of PfATP4-mutant resistant parasites – NITD609-resistant line, SYBR Green, dry powder, dose response (AID 1159571); format: functional, cell-based;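 further: parasites synchronized at ring stage by sorbitol before testing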
[4] = toxicity to human hepatoma HepG2 cells – cell-based, cherry-picked samples, cytotoxicity control, dose response (AID 1159577); format: functional
[5] = toxicity to human HepG2 hepatoma cells – cell-based, plate reader, dry powder samples, cytotoxicity control, dose response (AID 1159569); format: functional;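 further: inhibitor potency with signal falling toward the positive control level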
[6] = growth inhibition of yeast DHODH-expressing 3D7 parasites – SYBR Green, dry powder samples, dose response (AID 1159570); format: functional, cell-based;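 further: parasite growth measured after 72 hours of compound exposure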
[7] = Vero E6 cell cytotoxicity, dose response, cytotoxicity control for non-replicating M. tuberculosis project, secondary assay (AID 492998); format: functional, VeroE6; settings: Vero C1008
[8] = HepG2 cell cytotoxicity, dose response, cytotoxicity control for non-replicating M. tuberculosis project (AID 489018); format: functional; settings: Mycobacterium tuberculosis
cells = format: functional
[9] = THP-1 cell cytotoxicity, dose response, cytotoxicity control for non-replicating M. tuberculosis project (AID 489025); format: functional
[10] = biological target: Peroxisome proliferator-activated receptor gamma/Nuclear receptor coactivator 3 (Homo sapiens, UniProt P37231); assay: (§1) TR-FRET dose response biochemical High Throughput Screening assay for agonists of the steroid receptor coactivator 3 (SRC-3) recruitment by the peroxisome proliferator-activated receptor gamma (PPAR gamma): non-selective agonists. [Related pubchem assays: 1301 (Confirmation screen.), 1048 (Primary screen.)]; format: functional
Peroxisome proliferator-activated receptor gamma/Nuclear receptor coactivator 3, sequence (P37231 whole entry): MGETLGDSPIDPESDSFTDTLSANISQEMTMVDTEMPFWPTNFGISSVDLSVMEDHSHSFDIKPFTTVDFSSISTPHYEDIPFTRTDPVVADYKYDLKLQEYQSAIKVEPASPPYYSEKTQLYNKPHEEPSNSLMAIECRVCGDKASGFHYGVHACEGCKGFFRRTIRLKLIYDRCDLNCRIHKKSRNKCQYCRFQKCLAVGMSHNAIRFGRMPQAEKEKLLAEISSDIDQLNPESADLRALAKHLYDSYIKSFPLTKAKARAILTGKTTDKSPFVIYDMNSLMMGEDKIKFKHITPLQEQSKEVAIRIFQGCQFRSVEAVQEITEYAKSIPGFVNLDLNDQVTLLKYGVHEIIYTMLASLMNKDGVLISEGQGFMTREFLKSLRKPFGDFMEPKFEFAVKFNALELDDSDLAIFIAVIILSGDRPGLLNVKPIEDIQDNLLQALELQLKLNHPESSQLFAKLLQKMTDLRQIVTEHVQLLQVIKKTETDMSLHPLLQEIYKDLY
Peroxisome proliferator-activated receptor gamma/Nuclear receptor coactivator 3, sequence (Q9Y6Q9 whole entry, further chain): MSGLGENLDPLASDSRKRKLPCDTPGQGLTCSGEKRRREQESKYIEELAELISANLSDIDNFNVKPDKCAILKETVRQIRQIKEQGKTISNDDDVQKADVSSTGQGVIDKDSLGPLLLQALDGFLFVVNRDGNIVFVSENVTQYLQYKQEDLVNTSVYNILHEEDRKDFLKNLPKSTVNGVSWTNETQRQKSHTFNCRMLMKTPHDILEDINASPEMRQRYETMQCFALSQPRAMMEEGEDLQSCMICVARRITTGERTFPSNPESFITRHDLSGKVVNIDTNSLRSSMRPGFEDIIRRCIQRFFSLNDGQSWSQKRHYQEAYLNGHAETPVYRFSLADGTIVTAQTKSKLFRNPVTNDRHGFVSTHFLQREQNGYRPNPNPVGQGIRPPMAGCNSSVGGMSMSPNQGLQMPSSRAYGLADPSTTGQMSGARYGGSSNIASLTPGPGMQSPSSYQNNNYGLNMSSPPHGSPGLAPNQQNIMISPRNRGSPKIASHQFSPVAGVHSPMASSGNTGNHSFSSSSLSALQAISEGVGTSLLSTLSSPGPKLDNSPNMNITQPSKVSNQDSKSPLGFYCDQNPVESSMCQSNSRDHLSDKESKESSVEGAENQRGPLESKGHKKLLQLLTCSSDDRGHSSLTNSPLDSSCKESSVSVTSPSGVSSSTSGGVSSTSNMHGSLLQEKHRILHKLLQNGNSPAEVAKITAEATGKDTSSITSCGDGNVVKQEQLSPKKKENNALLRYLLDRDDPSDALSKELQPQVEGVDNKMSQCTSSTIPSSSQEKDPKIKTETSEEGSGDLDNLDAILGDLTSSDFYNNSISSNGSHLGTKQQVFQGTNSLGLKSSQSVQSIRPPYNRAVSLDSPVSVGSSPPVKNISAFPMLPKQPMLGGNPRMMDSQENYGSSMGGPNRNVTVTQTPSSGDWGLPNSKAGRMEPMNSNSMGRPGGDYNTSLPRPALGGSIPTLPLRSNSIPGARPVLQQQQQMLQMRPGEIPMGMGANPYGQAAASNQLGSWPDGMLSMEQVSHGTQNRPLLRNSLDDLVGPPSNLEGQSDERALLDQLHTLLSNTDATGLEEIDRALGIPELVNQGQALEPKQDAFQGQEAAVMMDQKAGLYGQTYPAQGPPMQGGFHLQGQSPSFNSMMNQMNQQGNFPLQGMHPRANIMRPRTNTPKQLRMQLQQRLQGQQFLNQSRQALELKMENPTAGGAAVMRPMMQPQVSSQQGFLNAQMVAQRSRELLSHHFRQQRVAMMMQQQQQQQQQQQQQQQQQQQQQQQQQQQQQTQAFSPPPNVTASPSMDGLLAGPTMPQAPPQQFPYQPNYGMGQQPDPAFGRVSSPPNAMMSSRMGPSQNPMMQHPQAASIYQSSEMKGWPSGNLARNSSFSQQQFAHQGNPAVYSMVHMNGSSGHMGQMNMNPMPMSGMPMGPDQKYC

[11] = biological target: Peroxisome proliferator-activated receptor gamma/Nuclear receptor coactivator 1 (Homo sapiens, UniProt P37231); assay: as §1, with “1 (SRC-1)” for “3 (SRC-3)”, “assays (depositor defined):AID1300, AID1808, AID504735, AID631]” for “assays: 1301 (Confirmation screen.), 1048 (Primary screen.)]”; format: protein assay
[12] = biological target: Peroxisome proliferator-activated receptor gamma/Nuclear receptor coactivator 2 (Homo sapiens, UniProt P37231); assay: TR-FRET dose response biochemical High Throughput Screening assay for agonists of the steroid receptor coactivator 2 (SRC-2) recruitment by the peroxisome proliferator-activated receptor gamma (PPAR gamma): non-selective agonists. [Related pubchem assays: 1297, 1032 ]; format: functional
Peroxisome proliferator-activated receptor gamma/Nuclear receptor coactivator 2, sequence (P37231 whole entry): as the sequence (P37231 whole entry) above
Peroxisome proliferator-activated receptor gamma/Nuclear receptor coactivator 2, sequence (Q15596 whole entry, further chain): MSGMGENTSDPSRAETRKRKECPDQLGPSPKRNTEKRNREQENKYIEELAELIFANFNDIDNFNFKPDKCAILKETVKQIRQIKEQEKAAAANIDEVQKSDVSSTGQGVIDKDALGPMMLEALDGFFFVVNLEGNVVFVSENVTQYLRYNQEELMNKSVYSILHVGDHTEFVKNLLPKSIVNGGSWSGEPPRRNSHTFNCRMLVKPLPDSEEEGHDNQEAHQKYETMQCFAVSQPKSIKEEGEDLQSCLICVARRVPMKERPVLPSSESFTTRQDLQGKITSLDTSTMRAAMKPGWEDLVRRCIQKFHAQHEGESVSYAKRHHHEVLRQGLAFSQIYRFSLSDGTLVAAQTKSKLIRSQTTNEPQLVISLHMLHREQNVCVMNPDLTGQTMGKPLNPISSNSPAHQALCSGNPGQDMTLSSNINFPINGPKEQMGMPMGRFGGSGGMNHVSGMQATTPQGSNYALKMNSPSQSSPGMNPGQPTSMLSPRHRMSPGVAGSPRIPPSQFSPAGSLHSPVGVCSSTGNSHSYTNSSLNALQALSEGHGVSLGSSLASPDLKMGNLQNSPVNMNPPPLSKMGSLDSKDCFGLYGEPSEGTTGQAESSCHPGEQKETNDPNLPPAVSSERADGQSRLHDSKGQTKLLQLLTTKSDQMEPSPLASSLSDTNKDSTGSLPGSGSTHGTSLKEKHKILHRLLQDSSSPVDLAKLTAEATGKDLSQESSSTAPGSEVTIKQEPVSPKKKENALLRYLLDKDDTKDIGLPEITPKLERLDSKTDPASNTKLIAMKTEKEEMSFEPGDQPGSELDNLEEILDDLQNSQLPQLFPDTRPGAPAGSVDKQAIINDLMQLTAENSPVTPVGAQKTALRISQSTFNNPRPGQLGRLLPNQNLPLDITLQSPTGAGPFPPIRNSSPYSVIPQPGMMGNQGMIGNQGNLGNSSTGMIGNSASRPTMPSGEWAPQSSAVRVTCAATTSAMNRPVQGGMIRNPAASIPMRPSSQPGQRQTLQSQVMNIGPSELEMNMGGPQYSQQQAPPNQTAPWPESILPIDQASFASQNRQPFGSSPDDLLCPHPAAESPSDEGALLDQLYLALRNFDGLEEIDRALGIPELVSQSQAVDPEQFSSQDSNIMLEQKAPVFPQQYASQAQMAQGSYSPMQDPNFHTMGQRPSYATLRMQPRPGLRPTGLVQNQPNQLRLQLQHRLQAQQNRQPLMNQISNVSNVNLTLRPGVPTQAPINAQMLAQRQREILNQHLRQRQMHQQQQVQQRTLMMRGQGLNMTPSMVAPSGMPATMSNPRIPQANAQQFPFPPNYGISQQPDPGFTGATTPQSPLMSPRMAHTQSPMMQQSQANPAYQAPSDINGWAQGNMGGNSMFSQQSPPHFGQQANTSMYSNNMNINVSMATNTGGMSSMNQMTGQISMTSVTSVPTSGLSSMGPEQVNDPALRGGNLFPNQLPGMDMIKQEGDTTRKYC

[13] = biological target: Voltage-gated inwardly rectifying potassium channel KCNH2 (Homo sapiens, UniProt Q12809); settings: Potency;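 further: confirmatory quantitative high-throughput screen measuring inhibition of hERG channel activity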
Voltage-gated inwardly rectifying potassium channel KCNH2, sequence (Q12809 whole entry): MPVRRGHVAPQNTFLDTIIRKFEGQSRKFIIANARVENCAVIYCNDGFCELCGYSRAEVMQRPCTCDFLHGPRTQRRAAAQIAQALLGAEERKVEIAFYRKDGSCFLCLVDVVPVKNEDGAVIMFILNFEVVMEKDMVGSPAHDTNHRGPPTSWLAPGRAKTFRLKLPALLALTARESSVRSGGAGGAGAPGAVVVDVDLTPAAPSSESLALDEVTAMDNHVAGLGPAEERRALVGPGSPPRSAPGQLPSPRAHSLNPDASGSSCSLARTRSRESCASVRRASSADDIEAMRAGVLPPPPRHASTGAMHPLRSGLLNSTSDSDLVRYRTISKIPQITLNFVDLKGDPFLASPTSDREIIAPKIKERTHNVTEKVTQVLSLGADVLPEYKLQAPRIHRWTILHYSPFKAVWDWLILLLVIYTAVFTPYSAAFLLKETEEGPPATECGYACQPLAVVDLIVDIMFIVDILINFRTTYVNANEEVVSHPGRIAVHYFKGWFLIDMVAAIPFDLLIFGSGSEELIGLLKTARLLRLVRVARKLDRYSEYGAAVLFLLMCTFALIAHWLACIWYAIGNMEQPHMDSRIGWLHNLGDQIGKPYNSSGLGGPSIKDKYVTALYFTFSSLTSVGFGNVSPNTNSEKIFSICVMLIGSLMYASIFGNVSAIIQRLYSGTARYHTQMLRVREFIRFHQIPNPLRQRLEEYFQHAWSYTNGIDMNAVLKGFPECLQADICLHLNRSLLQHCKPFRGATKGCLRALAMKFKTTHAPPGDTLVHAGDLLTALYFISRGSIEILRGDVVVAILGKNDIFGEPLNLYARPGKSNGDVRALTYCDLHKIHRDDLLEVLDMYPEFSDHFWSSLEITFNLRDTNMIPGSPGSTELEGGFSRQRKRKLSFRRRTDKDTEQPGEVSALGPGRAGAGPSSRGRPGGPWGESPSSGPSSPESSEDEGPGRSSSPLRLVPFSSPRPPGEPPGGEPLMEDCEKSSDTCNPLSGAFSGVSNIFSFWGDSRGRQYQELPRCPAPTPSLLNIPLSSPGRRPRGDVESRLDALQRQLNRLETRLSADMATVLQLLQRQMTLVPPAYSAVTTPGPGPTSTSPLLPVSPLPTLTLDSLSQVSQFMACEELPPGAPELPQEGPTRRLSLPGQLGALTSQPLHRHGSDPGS

[14] = biological target: Dual specificity tyrosine-phosphorylation-regulated kinase 1A (Rattus norvegicus, UniProt Q63470); format: biochemical, Homo sapiens
[15] = A Cell Based Secondary Assay To Explore Cytotoxicity of Compounds that Sensitize Mycobacterium Tuberculosis to Beta-Lactam Antibiotics.; format: functional
[16] = viability loss of HPDE-C7K cells – cell-based, fluorescence, HTS, primary screen (AID 431); format: functional; settings: Homo sapiens
[17] = HPDE-C7 pancreatic duct cell viability loss – fluorescence, HTS (AID 430); format: functional, cell-based; settings: Homo sapiens
[18] = biological target: FAD-linked sulfhydryl oxidase ALR (Homo sapiens, UniProt P55789); assay: ALR-catalysed DTT oxidation blockers – biochemical, H2O2 detection, luminescence, cherry-pick, dose response (AID 493248)
[19] = viability of uninfected HEp-2 cells – cell-based, HTS, cytotoxicity control for RSV inhibitor project, dose response (AID 2410); format: functional; settings: human respiratory syncytial virus
Vero [20] = assay: cells; format: functional, cell-based; settings: Chlorocebus sabaeus
Vero [21] = assay: cells; format: functional; settings: Chlorocebus sabaeus
HT-1080 = assay: HT1080 cell viability loss – fluorescence readout (AID 620); format: functional, cell-based; settings: Homo sapiens
[22] = biological target: Luciferin 4-monooxygenase (Photinus pyralis, UniProt P08659); assay: Counter Screen for Luciferase-based Assay Positives. [Related pubchem assays: 620, 618, 411 ]

Q: For COc1ccc2c3c([nH]c2c1)[C@H](CO)N(Cc1ccccn1)CC31CCN(Cc2cccc(F)c2)CC1, which AC50 [1] is on record?
A: 1.48 µM (active)

Q: What about the AC50 [2] of the same molecule?
A: 0.422 µM (active)

Q: What about the AC50 [3] of the same molecule?
A: 0.559 µM (active)

Q: What about the AC50 [4] of the same molecule?
A: > 39 µM (inactive)

Q: And the AC50 [5]?
A: 1.21 µM (active)

Q: What about the AC50 [6] of the same molecule?
A: 1.12 µM (active)

Q: For Cc1[nH]n(-c2ccc(Cl)cc2)c(=O)c1N=Nc1cccnc1, which CC50 [7] is on record?
A: 12.2 µM (active)

Q: And the CC50 [8]?
A: > 20 µM (active)

Q: What about the IC50 (cells) of the same molecule?
A: 1.78 µM (active)

Q: What about the CC50 [9] of the same molecule?
A: 26.7 µM (active)

Q: For Clc1ccc(Cl)c(-c2ccc(/C=N/c3nc[nH]n3)o2)c1, which EC50 [10] is on record?
A: > 79.4 µM (not active)

Q: What about the EC50 [11] of the same molecule?
A: 13.7 µM (inactive)

Q: And the EC50 [12]?
A: 12.6 µM (not active)

Q: Which AC50 [13] does the source give for CC1(C)CCC2=C(O1)c1ccccc1C(=O)C2=O [LAPACHONE] here?
A: 15.8 µM (inconclusive)

Q: Which EC50 [10] does the source give for O=C(c1cc2c(s1)-c1ccccc1OC2)N1CCN(c2ccccn2)CC1 here?
A: > 79.4 µM (not active)

Q: What about the EC50 [11] of the same molecule?
A: 33.7 µM (inactive)

Q: And the EC50 [12]?
A: 23.2 µM (not active)

Q: Which results are given for COc1ccc(-c2ccc([C@H]3[C@H](C#N)N(C(=O)c4cccnc4)[C@H]3CO)cc2)cc1?
A: AC50 [1]: 1.25 µM (active); AC50 [2]: 0.764 µM (active); AC50 [3]: 0.586 µM (active); AC50 [4]: > 42 µM (inactive); AC50 [5]: > 100 µM (inactive); AC50 [6]: 1.15 µM (active)

Q: Which results are given for O=C(Nc1ccccc1Cl)c1csc(-c2cccnc2)n1?
A: AC50 [14]: 0.493 µM (active); CC50 [15]: > 40 µM (active)

Q: With CC(CN1c2ccccc2Sc2ccccc21)N(C)C (centres undefined) [PROMETHAZINE HYDROCHLORIDE] as the molecule, how does the AC50 [13] read?
A: 15.8 µM (inconclusive)

Q: And the EC50 [16]?
A: > 20 µM (not active)

Q: What about the EC50 [17] of the same molecule?
A: > 20 µM (not active)

Q: And the AC50 [18]?
A: 0.367 µM (active)

Q: For O=c1oc(-c2ccccc2F)nc2c1cnn2-c1ccccc1, which EC50 [10] is on record?
A: > 79.4 µM (not active)

Q: And the EC50 [11]?
A: > 79.4 µM (inactive)

Q: What about the EC50 [12] of the same molecule?
A: > 79.4 µM (not active)

Q: With C/C=C/c1ccccc1[C@H]1[C@@H](C#N)N(c2nc(CC)cs2)[C@@H]1CO as the molecule, how does the AC50 [1] read?
A: 3.11 µM (active)

Q: And the AC50 [4]?
A: 21.4 µM (active)

Q: What does the source list for COc1ccccc1-c1cc(C(=O)N/N=C/c2cccs2)c2ccccc2n1?
A: CC50 [19]: 24.7 µM (active); IC50 (Vero [20]): 18.9 µM (active); CC50 (Vero [21]): > 25 µM (active)

Q: Which results are given for CC(C)C(=O)Nc1ccc(NC(=O)c2ccccn2)cn1?
A: EC50 (HT-1080): > 50 µM (not active); EC50 [22]: 0.44 µM (active)
